From patent US9163012B2, “Carbamate and urea inhibitors of 11β-hydroxysteroid dehydrogenase 1” (Vitae Pharmaceuticals, Inc., priority 2009, dated 2015)
pIC50: −log10 of the molar value. Several values for one entry are separate records, joined by “and”; a condition that tells them apart may be missing. Equal entries are not always repeated. Where two headings read alike, the source gives them in different places.

Target: 11β-HSD1 (Homo sapiens (Human), UniProt P28845)
Test: Biological Test Example 1: inhibition of a microsomal preparation of 11β-HSD1 (SPA)
Type: biochemical
Procedure: All reactions were carried out at rt in 96 well clear flexible PET Microbeta plates (PerkinElmer). […] After a 10 minute pre-incubation, 50 μL of enzyme solution containing microsomes isolated from CHO cells overexpressing human 11-HSD1 (10-20 μg/ml of total protein) was added, and the plates were incubated for 90 minutes at rt. The reaction was stopped by adding 50 μl of the SPA beads suspension containing 10 μM […], 5 mg/ml protein A coated YSi SPA beads (GE Healthcare) and 3.3 μg/ml of anti-cortisol antibody (East Coast Biologics) in Superblock buffer (Bio-Rad). The plates were shaken for 120 minutes at rt, and the SPA signal corresponding to [^3H]cortisol was measured on a Microbeta plate reader.

[1] = Biological Test Example 1, 100 nM compound
[2] = Biological Test Example 1, microsomes from CHO cells overexpressing human 11β-HSD1, read-out: IC50 Range
[3] = Biological Test Example 1, read-out: IC50
[4] = read-out: Average % inhibition at 100 nM, Biological Test Example 1, 100 nM compound

Sequence of 11β-HSD1 (P28845 whole entry): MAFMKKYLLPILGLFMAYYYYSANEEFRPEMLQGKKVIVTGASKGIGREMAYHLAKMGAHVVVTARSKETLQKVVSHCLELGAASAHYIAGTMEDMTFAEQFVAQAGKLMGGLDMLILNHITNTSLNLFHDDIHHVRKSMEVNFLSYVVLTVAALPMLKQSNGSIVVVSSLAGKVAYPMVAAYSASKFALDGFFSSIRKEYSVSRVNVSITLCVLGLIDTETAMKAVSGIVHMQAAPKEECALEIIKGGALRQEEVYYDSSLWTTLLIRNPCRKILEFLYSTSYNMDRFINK

SMILES	Average % inhibition at 100 nM [1] [%]	pIC50 [2]	pIC50 [3]	inhibition at 0.1 µM [4] [%]	further results
O=C(OC1C2CC3CC1CC(O)(C3)C2)N1CCC(c2ncc(Cl)cn2)C1 (single isomer, unassigned) [EXAMPLE 24 Isomer 2, cis-1-hydroxy-4-adamantyl 3-(5-chloropyrimidin-2-yl)pyrrolidine-1-carboxylate]	34.7	–	–	–	–
Cc1csc(C2CCN(C(=O)OC3C4CC5CC3CC(C(N)=O)(C5)C4)C2)n1 (single isomer, unassigned) [EXAMPLE 42 Isomer 2, cis-1-carbamoyl-4-adamantyl 3-(4-methylthiazol-2-yl)pyrrolidine-1-carboxylate]	21.8	–	–	–	–
Cc1ccc(C2CCN(C(=O)OC3C4CC5CC3CC(C(N)=O)(C5)C4)C2)nc1 (single isomer, unassigned) [EXAMPLE 35 Isomer 2, cis-1-carbamoyl-4-adamantyl 3-(5-methylpyridin-2-yl)pyrrolidine-1-carboxylate]	8.1	< 7.00	< 7.00	–	–
NC(=O)[C@]12CC3CC(C1)[C@@H](OC(=O)N1CCCC1c1ccccn1)C(C3)C2 (stereo partly drawn) [EXAMPLE 19, trans-1-carbamoyl-4-adamantyl 2-(pyridin-2-yl)pyrrolidine-1-carboxylate]	–	> 7.00	8.17	–	inhibition at 0.1 µM (read-out: Average % inhibition at 100 nM): 93.2%
Cc1cc(C)nc(C2CCN(C(=O)OC3C4CC5CC3CC(C(N)=O)(C5)C4)C2)n1 (single isomer, unassigned) [EXAMPLE 43 Isomer 2, cis-1-carbamoyl-4-adamantyl 3-(4,6-dimethylpyrimidin-2-yl)pyrrolidine-1-carboxylate]	−1.8	< 7.00	< 7.00	–	–
O=C(OC1C2CC3CC1CC(O)(C3)C2)N1CCC(c2ncc(Cl)cn2)C1 (single isomer, unassigned) [EXAMPLE 24 Isomer 1, trans-1-hydroxy-4-adamantyl 3-(5-chloropyrimidin-2-yl)pyrrolidine-1-carboxylate]	98.6	–	–	–	–
Cn1ccc(-c2cnc(C3CCN(C(=O)OC4C5CC6CC4CC(C(N)=O)(C6)C5)C3)nc2)cc1=O (single isomer, unassigned) [EXAMPLE 57 Isomer 2, 1-carbamoyl-4-adamantyl 3-(5-(1-methyl-2-oxo-1,2-dihydropyridin-4-yl)pyrimidin-2-yl)pyrrolidine-1-carboxylate]	–	< 7.00	< 7.00	18.1	–
Cc1ncc(C2CCN(C(=O)OC3C4CC5CC3CC(C(N)=O)(C5)C4)C2)cn1 (single isomer, unassigned) [EXAMPLE 36 Isomer 2, 1-carbamoyl-4-adamantyl 3-(2-methylpyrimidin-5-yl)pyrrolidine-1-carboxylate]	1.5	< 7.00	< 7.00	–	–
Cn1ccc(-c2cnc(C3CCN(C(=O)OC4C5CC6CC4CC(C(N)=O)(C6)C5)C3)nc2)cc1=O (single isomer, unassigned; isomer 1) [EXAMPLE 57 Isomer 1, trans-1-carbamoyl-4-adamantyl 3-(5-(1-methyl-2-oxo-1,2-dihydropyridin-4-yl)pyrimidin-2-yl)pyrrolidine-1-carboxylate]	–	–	–	–	Average % inhibition at 100 nM: 65.0%; pIC50 (read-out: IC50): 7.30; pIC50 (read-out: IC50 Range): > 7.00
O=C(OC1C2CC3CC(C2)CC1C3)N1CCC(CO)(c2ccccc2)CC1 (stereo not drawn) [EXAMPLE 30, 2-adamantyl 4-(hydroxymethyl)-4-phenylpiperidine-1-carboxylate]	–	> 7.00	7.88 and 8.35	87.4	inhibition at 0.063 µM (Biological Test Example 1, Dose = 63 nM): 80.1%
O=C(OC1C2CC3CC1CC(O)(C3)C2)N1CCC(c2cc[n+]([O-])cc2)C1 (stereo not drawn) [EXAMPLE 22, 4-(1-((1-hydroxy-4-adamantyloxy)carbonyl)pyrrolidin-3-yl)pyridine 1-oxide]	–	< 7.00	7.00	3.7	–
NC(=O)C12CC3CC(C1)C(OC(=O)N1CCC(c4ncc(F)cn4)C1)C(C3)C2 (single isomer, unassigned) [EXAMPLE 41 Isomer 1, 1-carbamoyl-4-adamantyl 3-(5-fluoropyrimidin-2-yl)pyrrolidine-1-carboxylate]	92.3	–	–	–	–
NC(=O)[C@]12CC3CC(C1)[C@@H](OC(=O)N1CC[C@@H](Oc4ccc(C(F)(F)F)cn4)C1)C(C3)C2 [EXAMPLE 5, (R)-(trans-(1-carbamoyl-4-adamantyl)) 3-(5-(trifluoromethyl)pyridin-2-yloxy)pyrrolidine-1-carboxylate]	–	> 7.00	9.00	94.9	–
NC(=O)C12CC3CC(C1)C(OC(=O)N1CCC(c4nccc(C(F)(F)F)n4)C1)C(C3)C2 (single isomer, unassigned) [EXAMPLE 48 Isomer 1, trans-1-carbamoyl-4-adamantyl 3-(4-(trifluoromethyl)pyrimidin-2-yl)pyrrolidine-1-carboxylate]	94.5	–	–	–	–
Cc1noc(C2CCN(C(=O)O[C@H]3C4CC5CC3C[C@](C(N)=O)(C5)C4)C2)n1 (stereo partly drawn) [EXAMPLE 23, trans-1-carbamoyl-4-adamantyl 3-(3-methyl-1,2,4-oxadiazol-5-yl)pyrrolidine-1-carboxylate]	–	> 7.00	7.75	79.3	–
Cc1nc2cccc(Cl)c2n1[C@@H]1CCN(C(=O)OC2C3CC4CC2CC(C(N)=O)(C4)C3)C1 (stereo partly drawn) [EXAMPLE 59, (R)-1-carbamoyl-4-adamantyl 3-(7-chloro-2-methyl-1H-benzo[d]imidazol-1-yl)pyrrolidine-1-carboxylate]	–	> 7.00	8.72	96.7	–
Cc1nc2cccc(Cl)c2n1[C@H]1CCN(C(=O)OC2C3CC4CC2CC(C(N)=O)(C4)C3)C1 (stereo partly drawn) [EXAMPLE 76, (S)-1-carbamoyl-4-adamantyl 3-(7-chloro-2-methyl-1H-benzo[d]imidazol-1-yl)pyrrolidine-1-carboxylate]	–	> 7.00	8.95	93.6	–
Cc1cnc(C2CCN(C(=O)OC3C4CC5CC3CC(C(N)=O)(C5)C4)C2)nc1 (single isomer, unassigned) [EXAMPLE 39 Isomer 2, 1-carbamoyl-4-adamantyl 3-(5-methylpyrimidin-2-yl)pyrrolidine-1-carboxylate]	1.8	< 7.00	< 7.00	–	–

More lines, main results first:

Average % inhibition at 100 nM [1] [%]	pIC50 [2]	pIC50 [3]	inhibition at 0.1 µM [4] [%]	SMILES	further results
–	> 7.00	7.87	87.5	NC(=O)[C@]12CC3CC(C1)[C@@H](OC(=O)N1CCCC1c1ncc(Cl)cn1)C(C3)C2 (stereo partly drawn) [EXAMPLE 45, 1-carbamoyl-4-adamantyl 2-(5-chloropyrimidin-2-yl)pyrrolidine-1-carboxylate]	–
–	> 7.00	9.17	96.2	NC(=O)[C@]12CC3CC(C1)[C@@H](OC(=O)N1CC[C@H](Oc4ncc(F)cc4F)C1)C(C3)C2 [EXAMPLE 2, (S)-(trans-(1-carbamoyl-4-adamantyl)) 3-(3,5-difluoropyridin-2-yloxy)pyrrolidine-1-carboxylate]	–
–	> 7.00	8.57	95.4	NC(=O)[C@]12CC3CC(C1)[C@@H](OC(=O)N1CCC[C@@H]1c1nc(-c4cc[nH]c(=O)c4)cs1)C(C3)C2 [EXAMPLE 54, (R)-trans-1-carbamoyl-4-adamantyl 2-(4-(2-oxo-1,2-dihydropyridin-4-yl)thiazol-2-yl)pyrrolidine-1-carboxylate]	–
90.8	> 7.00	8.16	–	Cc1cc(C2CCN(C(=O)OC3C4CC5CC3CC(C(N)=O)(C5)C4)C2)nn1C (single isomer, unassigned) [EXAMPLE 40 Isomer 1, 1-carbamoyl-4-adamantyl 3-(1,5-dimethyl-1H-pyrazol-3-yl)pyrrolidine-1-carboxylate]	–
93.1	> 7.00	8.48	–	Cc1ccnc(C2CCN(C(=O)OC3C4CC5CC3CC(C(N)=O)(C5)C4)C2)n1 (single isomer, unassigned) [EXAMPLE 38 Isomer 1, 1-carbamoyl-4-adamantyl 3-(4-methylpyrimidin-2-yl)pyrrolidine-1-carboxylate]	–
–	> 7.00	8.71	94.2	Cn1c(=O)ccc2cc(C3CCN(C(=O)OC4C5CC6CC(C5)CC4C6)C3)ccc21 (stereo not drawn) [EXAMPLE 17, 2-adamantyl 3-(1-methyl-2-oxo-1,2-dihydroquinolin-6-yl)pyrrolidine-1-carboxylate]	–
–	> 7.00	9.00	91.2	NC(=O)[C@]12CC3CC(C1)[C@@H](OC(=O)N1CC[C@H](n4c(=O)[nH]c5cc(F)ccc54)C1)C(C3)C2 [EXAMPLE 63, (S)-trans-1-carbamoyl-4-adamantyl 3-(5-fluoro-2-oxo-2,3-dihydro-1H-benzo[d]imidazol-1-yl)pyrrolidine-1-carboxylate]	–
–	> 7.00	9.34	96.9	NC(=O)[C@]12CC3CC(C1)[C@@H](OC(=O)N1CC[C@@H](n4c(=O)[nH]c5cccc(Cl)c54)C1)C(C3)C2 [EXAMPLE 68, (R)-trans-1-carbamoyl-4-adamantyl 3-(7-chloro-2-oxo-2,3-dihydro-1H-benzo[d]imidazol-1-yl)pyrrolidine-1-carboxylate]	–
–	> 7.00	8.58	90.3	O=C(O[C@H]1C2CC3CC1C[C@](O)(C3)C2)N1CC[C@@H](Oc2ccc(C(F)(F)F)cn2)C1 [EXAMPLE 4, (R)-(trans-(1-hydroxy-4-adamantyl)) 3-(5-(trifluoromethyl)pyridin-2-yloxy)pyrrolidine-1-carboxylate]	–
